# Literature values in PMC12308805, “Ultrahigh-Throughput Virtual Screening Strategies against PPI Targets: A Case Study of STAT Inhibitors” (Journal of Chemical Information and Modeling, 2025).
# Like-named read-outs stand apart in the source and are kept apart here. Square brackets hold non-standard residues; d marks the D form. Peptide text beside a SMILES is read from it. * marks the point of attachment. pY = N[C@@H](Cc1ccc(OP(=O)(O)O)cc1)C(=O)O; X1 = O=C(c1cc2cc(OP(=O)(O)O)ccc2[nH]1)*; aIle = CC[C@@H](C)[C@H](N)C(=O)O; AMC = Cc1cc(=O)oc2cc(N*)ccc12; Boc = CC(C)(C)OC(=O)*
# Test system: STAT3
# Details: cited from earlier work; for Type: retrospective screening set for STAT3 SH2 domain (PDB 6QHD), ref DUD-E
# [1] = sheet 6QHD_actives_decoys, decoys are presumed inactives, not tested
# [2] = sheet 6QHD_actives_decoys, decoys generated with DUD-E and presumed inactive, not tested
# [3] = sheet 6QHD_actives_decoys, known STAT3 actives of the retrospective screening set, ref ChEMBL / literature
SMILES,Type [1],Type [2],also measured
CCn1cc([C@@H](C)NC(=S)Nc2ccc(S(=O)(=O)Nc3ncccn3)cc2)c(C)n1 [Decoy919],Inactive (Decoy),,
CCOC(=O)CNC(=O)[C@@H](c1ccc(F)cc1)N(C(=O)c1snc(C(N)=O)c1N)c1ccccc1F [Decoy587],,Inactive (Decoy),
COc1cc(NC(=O)CCSc2nnc(N/N=C/c3c(O)ccc4ccccc34)n2N)cc(OC)c1 [Decoy871],Inactive (Decoy),,
C=C[C@](C)(O)CC/C=C(\C)C(=O)OC[C@H]1O[C@@H](O[C@@](C)(C=C)CC/C=C(\C)C(=O)O)[C@H](O)[C@@H](OC(=O)/C(C)=C/CC[C@](C)(O)C=C)[C@@H]1O [Decoy662],,Inactive (Decoy),
COC(=O)c1cc2c(cc1C(=O)OC)OCCOCCOCCN(Cc1cn(CCOCCOCCO)nn1)CCOCCOCCO2 [Decoy630],,Inactive (Decoy),
CCN(CC)c1ccc(-n2nc3cc(C)c(NC(=S)NC(=O)c4ccc(OC)cc4OC)cc3n2)cc1 [Decoy453],,Inactive (Decoy),
CC(C)C[C@H](NC(=O)/C=C/c1ccc(OP(=O)(O)O)cc1)C(=O)N1CCC[C@H]1C(=O)NCCNC(N)=O [CHEMBL574636],,,Type (known STAT3 active) [3]: Active
COc1ccc(Cl)cc1N/C(N)=N\c1nc(CSc2nnnn2-c2ccccc2)cc(=O)[nH]1 [Decoy678],,Inactive (Decoy),
COC(=O)c1ccc(S(=O)(=O)N(CCCO)Cc2cc3cc4c(cc3[nH]c2=O)OCCO4)cc1 [Decoy669],,Inactive (Decoy),
CCCCN(CC)S(=O)(=O)c1cc([N+](=O)[O-])ccc1NN/C=C1/C(=O)N=C(O)NC1=O [Decoy950],Inactive (Decoy),,
CCSc1nnc(/N=C(\O)CSc2n[nH]c(N/N=C/c3cn(C)nc3C)n2)s1 [Decoy414],,Inactive (Decoy),
CCCCOc1ccc([C@@H]2C(C(=O)c3nc4c(C)cccn4c3C)=C(O)C(=O)N2CCN(C)C)cc1OCC [Decoy578],,Inactive (Decoy),
CCOC(=O)Cc1csc(NC(=O)CSc2nnc(Cc3csc(N)n3)n2C)n1 [Decoy522],,Inactive (Decoy),
CCOc1ccc(NC(=O)CSC2=C(C#N)[C@@H](c3ccco3)C(C(=O)Nc3cc(OC)ccc3OC)=C(C)N2)cc1 [Decoy933],Inactive (Decoy),,
CC(=O)N[C@@H]1[C@@H](OC(C)=O)[C@H](OC(C)=O)[C@@H](COC(C)=O)O[C@H]1Sc1nnc(COc2ccccc2C)n1C1CCCC1 [Decoy405],,Inactive (Decoy),
CC(=O)N[C@@H]1[C@@H](O)[C@H](O[C@@H]2O[C@H](CO)[C@H](O)[C@H](O[C@]3(C(=O)O)C[C@H](O)[C@@H](NC(C)=O)[C@H]([C@H](O)[C@H](O)CO)O3)[C@H]2O)[C@@H](CO)O[C@@H]1O [Decoy638],,Inactive (Decoy),
Cc1ccc(C)c(NC(=O)CCC(=O)N/N=C(/S)NC(=O)c2ccccc2[N+](=O)[O-])c1 [Decoy948],Inactive (Decoy),,
CC(=O)N[C@@H]1[C@@H](O)[C@H](O[C@@H]2O[C@H](CO)[C@H](O)[C@H](O[C@@]3(C(=O)O)C[C@H](O)[C@@H](NC(C)=O)[C@H]([C@H](O)[C@H](O)CO)O3)[C@H]2O)[C@@H](CO)O[C@H]1O [Decoy636],,Inactive (Decoy),
CC(C)(CC[C@@H](O)[C@@](C)(O)[C@H]1CC[C@@]2(O)C3=CC(=O)[C@H]4C[C@@H](O)[C@@H](O)C[C@]4(C)[C@@H]3CC[C@]12C)O[C@H]1O[C@@H](CO)[C@@H](O)[C@@H](O)[C@H]1O [Decoy905],Inactive (Decoy),,
COc1c([C@@H]2OC[C@H](OC(C)=O)[C@@H](OC(C)=O)[C@H]2OC(C)=O)c(O)cc2oc(-c3ccc(O[C@H]4O[C@@H](CO)[C@@H](O)[C@@H](O)[C@H]4O)cc3)cc(=O)c12 [Decoy774],Inactive (Decoy),,
COC(=O)c1sc(NC(=O)CCCS(=O)(=O)c2nc(-c3ccccc3OC)cc(C(F)(F)F)n2)c(C(N)=O)c1C [Decoy427],,Inactive (Decoy),
C[C@H](CCC(=O)NCC(=O)NCCS(=O)(=O)O)[C@H]1CC[C@H]2[C@@H]3[C@H](O)C[C@@H]4C[C@H](O)CC[C@]4(C)[C@H]3C[C@H](O)[C@]12C [Decoy532],,Inactive (Decoy),
CC[C@H]1OC(=O)[C@H](C)[C@@H](O[C@@H]2C[C@](C)(OC)[C@H](O)[C@H](C)O2)[C@H](C)[C@H](O[C@H]2O[C@@H](C)C[C@@H](N(C)C)[C@H]2O)[C@](C)(O)C[C@@H](C)/C(=N\OCOCCOC)[C@H](C)[C@@H](O)[C@]1(C)O [Decoy582],,Inactive (Decoy),
COc1cc(NC(=S)/N=C(\NCCc2c[nH]cn2)Nc2nc(C)cc(C)n2)c(OC)cc1Cl [Decoy651],,Inactive (Decoy),
COc1ccc(C(OC[C@H]2O[C@H](Oc3ccc([N+](=O)[O-])cc3)[C@@H](O)[C@@H](O)[C@@H]2O)(c2ccccc2)c2ccc(OC)cc2)cc1 [Decoy888],Inactive (Decoy),,
CC(=O)N[C@@H](Cc1ccc(OP(=O)(O)O)cc1)C(=O)N[C@@H](CC(C)C)C(=O)N1CCC[C@H]1C(=O)N[C@@H](CCC(N)=O)C(N)=O [CHEMBL194516] (Ac-[pY]LPQ-NH2),,,Type (known STAT3 active) [3]: Active

SMILES,Type [1],Type [2],also measured
CCOC(=O)C1=C(C)NC(=O)N[C@H]1c1cc(OC)c(OCC(=O)Nc2ccc(C)cc2)cc1Br [Decoy705],,Inactive (Decoy),
CC(C)(O)[C@@H](O)CC[C@@H](CO)[C@H]1CC[C@]2(C)C3=C(C[C@H](O)[C@@]12C)[C@@]1(C)C[C@H](O)[C@H](OC(=O)C[C@](C)(O)CC(=O)NCC(=O)O)C(C)(C)[C@H]1CC3 [Decoy836],Inactive (Decoy),,
COc1ccc(N([C@@H](C)C(=O)Nc2ccc(S(=O)(=O)Nc3ccc(Cl)c(C(F)(F)F)c3)cc2)S(C)(=O)=O)cc1 [Decoy412],,Inactive (Decoy),
COc1cc(NC(=O)c2cnn3c2N[C@H](c2cc(OC)c(OC)c(OC)c2)C[C@@H]3C(F)(F)F)cc([N+](=O)[O-])c1 [Decoy512],,Inactive (Decoy),
NCCCCCCNc1ncnc2c1ncn2[C@@H]1O[C@H](COP(=O)(O)O)[C@@H](OP(=O)(O)O)[C@H]1O [Decoy505],,Inactive (Decoy),
CCCCN(C(=O)c1cccc(S(=O)(=O)N2CCN(C)CC2)c1)c1c(N)n(CCCC)c(=O)[nH]c1=O [Decoy864],Inactive (Decoy),,
CC[C@@H](C)[C@H](NC(=O)OC(C)(C)C)C(=O)N[C@@H](CCC(=O)O)C(=O)NCC(=O)N[C@@H](CCCNC(=N)N)C(=O)Nc1ccc2c(C)cc(=O)oc2c1 [Decoy753] (Boc-[aIle]EGR-{AMC}),Inactive (Decoy),,
CC(C)C[C@H](NC(=O)/C=C/c1ccc(OP(=O)(O)O)cc1)C(=O)N1C[C@H]2C[C@H]2[C@H]1C(=O)NCCCC(N)=O [CHEMBL577143],,,Type (known STAT3 active) [3]: Active
CC(=O)O[C@H]([C@@H](OC(C)=O)[C@H](OC(C)=O)C(=O)NC1CCCCCC1)[C@H](OC(C)=O)C(=O)NC1CCCCCC1 [Decoy426],,Inactive (Decoy),
C[C@H](N[C@H](C)c1ccc(Cl)s1)c1ccc(Cl)c(Cl)c1Cl [Decoy730],Inactive (Decoy),,
COc1ccccc1OCCNC[C@@H](O)Cn1c2ccccc2c2c(OC[C@@H](O)CNCCOc3ccccc3OC)cccc21 [Decoy936],Inactive (Decoy),,
C=C1CC[C@H]2[C@](C)(CO[C@H]3O[C@@H](CO[C@H]4O[C@@H](CO)[C@@H](O)[C@H]4O)[C@@H](O)[C@@H](O)[C@H]3O)[C@@H](O)CC[C@]2(C)[C@H]1CC/C(C)=C\CO [Decoy612],,Inactive (Decoy),
CCOc1ccc(S(=O)(=O)Nc2ccc(C(=O)N/N=C(\C)c3ccc(OC)cc3O)cc2)cc1 [Decoy858],Inactive (Decoy),,
CC(=O)[C@@H]1CC[C@H]2[C@H]3CC=C4C[C@@H](O[C@@H]5O[C@H](CO)[C@@H](O)[C@H](O)[C@H]5O[C@@H]5O[C@H](CO)[C@@H](O)[C@H](O)[C@H]5O)CC[C@]4(C)[C@@H]3CC[C@]12C [Decoy895],Inactive (Decoy),,
CC(=O)N[C@H]1[C@H]([C@H](O)[C@H](O)CO)O[C@](O[C@H]2[C@@H](O)[C@@H](CO)O[C@@H](O[C@H]3[C@H](O)[C@@H](O)[C@H](NC(C)=O)O[C@@H]3CO)[C@@H]2O)(C(=O)O)C[C@@H]1O [Decoy607],,Inactive (Decoy),
CC(=O)OC[C@H]1O[C@@H](O[C@@]2(CO)O[C@@H](CO)[C@@H](OC(C)=O)[C@H]2OC(C)=O)[C@@H](OC(C)=O)[C@@H](OC(C)=O)[C@@H]1O [Decoy643],,Inactive (Decoy),
CCOC(=O)c1c(NC(=O)c2cc(OC)c(OC)c(OC)c2)sc(C(=O)Nc2ccc(OC)cc2OC)c1C [Decoy754],Inactive (Decoy),,
Cc1ccc(OCC(=O)NNC(=O)CCCCC(=O)NNC(=O)COc2ccc(C)cc2Br)c(Br)c1 [Decoy784],Inactive (Decoy),,
CC(C)C[C@H](NC(=O)c1cc2cc(OP(=O)(O)O)ccc2[nH]1)C(=O)N1CCC[C@H]1C(=O)N[C@@H](CCC(N)=O)C(=O)N[C@H](C(N)=O)[C@@H](C)O [CHEMBL485921] (X1-LPQT-NH2),,,Type (known STAT3 active): Active
C=C1NC(=O)[C@@H]([C@@H](C)O)NC(=O)[C@@H](C(C)C)NC(=O)[C@@H](C)[C@@H](O)[C@H](C)[C@@H](CCCCCCCCC)OC1=O [Decoy732],Inactive (Decoy),,
[H]/N=C1/[C@@H](C)[C@@H](O)[C@@](C)(O)[C@@H](CC)OC(=O)[C@H](C)[C@H](O[C@@H]2C[C@@](C)(OC)[C@H](O)[C@H](C)O2)[C@@H](C)[C@H](O[C@H]2O[C@@H](C)C[C@@H](N(C)C)[C@H]2O)[C@@](C)(O)C[C@@H]1C [Decoy389],,Inactive (Decoy),
COc1ccccc1NS(=O)(=O)c1ccc(OC)c(NS(=O)(=O)c2ccc(C(=O)O)cc2)c1 [Decoy605],,,"Type (sheet 6QHD_actives_decoys, […]): Inactive (Decoy)"
CC(=O)O[C@@H]1[C@@H](O)[C@@H](O[C@@H](C/N=C/c2ccc(O)c3ccccc23)[C@@H](CO)O[C@H](O)C/N=C/c2ccc(O)c3ccccc23)O[C@@H](CO)[C@H]1O [Decoy410],,Inactive (Decoy),
CC(C)CNC(=O)c1ccc2c(=O)n(C(C)C)c3nn(CC(=O)Nc4ccc(F)cc4)c(=O)n3c2c1 [Decoy378],,Inactive (Decoy),
CCOC(=O)Cn1nnnc1[C@@H](CC)N(Cc1ccc(F)cc1)Cc1cc2cc3c(cc2[nH]c1=O)OCCO3 [Decoy585],,Inactive (Decoy),
